Experiments:
[1] = Drug excipient compatibility: physical description after storage; format: physicochemical; conditions: up to 4 weeks 40° C./75% RH and 25° C./60% RH, 60° C. 1 week
Protocol: This study was conducted to assess the compatibility of miglustat with excipient candidates that can be used in the liquid Miglustat product. Each different excipient was manually stirred with miglustat and stored into amber glass vials.
Vials were stored in climatic chambers with different environmental conditions: 25° C./60% RH, 40° C./75% RH and 60° C. for up to 4 weeks, in closed containers. (RH=relative humidity)
After the defined storage time, samples were exited from the climatic chambers. Operators observed the solution and described the appearance of the solution by visual inspection.

[2] = ambient temperature; cited from earlier work

| SMILES | Compatibility of excipient with Miglustat in binary mixture (DEC study conclusion) [1] | Solubility in water [2] |
| --- | --- | --- |
| CC1=CC(=O)NS(=O)(=O)O1 [Acesulfame Potassium] | not compatible |  |
| Cl [Hydrochloric acid] | not compatible |  |
| CCCCN1C[C@H](O)[C@@H](O)[C@H](O)[C@H]1CO [Miglustat, 1,5-(butylimino)-1,5-dideoxy-D-glucitol] |  | > 1000 mg/mL |
| O=C([O-])c1ccccc1.[Na+] [Sodium Benzoate, sodium salt of benzoic acid] | compatible |  |
| O=C(O)C(O)C(O)C(=O)O (stereo not drawn) [Tartaric acid, 2,3-Dihydroxybutanedioic acid] | compatible |  |
| O=C1O[C@H]([C@@H](O)CO)C(O)=C1O [ascorbic acid] | not compatible |  |

From US20260240827A1, “PALATABLE LIQUID SOLUTION CONTAINING HIGH CONCENTRATION OF MIGLUSTAT” (THERANEXUS, priority 2022, published 2026)
